Results from ChEMBL document CHEMBL4507268 (2021).

What was measured:
[1] = target: D(1A) dopamine receptor (Homo sapiens) (UniProt P21728); details: Compound concentration 10.0 uM
[2] = target: T1, NUAK family SNF1-like kinase 1 (Homo sapiens) (UniProt O60285); details: Compound concentration 1.0 uM
T1 sequence (whole entry): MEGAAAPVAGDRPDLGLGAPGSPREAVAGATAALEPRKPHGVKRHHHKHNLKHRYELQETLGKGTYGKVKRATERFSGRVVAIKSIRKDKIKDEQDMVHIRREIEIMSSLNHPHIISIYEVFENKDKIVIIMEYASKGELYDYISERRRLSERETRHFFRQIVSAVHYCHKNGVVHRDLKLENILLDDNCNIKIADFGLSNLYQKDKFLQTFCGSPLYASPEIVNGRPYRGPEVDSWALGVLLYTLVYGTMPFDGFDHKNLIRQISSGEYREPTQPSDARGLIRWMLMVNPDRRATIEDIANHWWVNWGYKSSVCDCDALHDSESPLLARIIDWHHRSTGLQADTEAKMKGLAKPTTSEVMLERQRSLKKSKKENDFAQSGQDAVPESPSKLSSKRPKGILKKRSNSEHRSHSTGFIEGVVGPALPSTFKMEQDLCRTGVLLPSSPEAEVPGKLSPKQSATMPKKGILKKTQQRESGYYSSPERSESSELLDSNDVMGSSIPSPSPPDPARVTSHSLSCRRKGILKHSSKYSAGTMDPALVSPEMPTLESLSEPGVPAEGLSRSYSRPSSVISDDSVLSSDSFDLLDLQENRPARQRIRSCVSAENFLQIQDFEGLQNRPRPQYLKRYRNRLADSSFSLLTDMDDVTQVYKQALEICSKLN

[3] = target: Receptor-type tyrosine-protein kinase FLT3 (Homo sapiens) (UniProt P36888); details: Compound concentration 1.0 uM
Sequence of Receptor-type tyrosine-protein kinase FLT3 (Homo sapiens) (P36888 whole entry): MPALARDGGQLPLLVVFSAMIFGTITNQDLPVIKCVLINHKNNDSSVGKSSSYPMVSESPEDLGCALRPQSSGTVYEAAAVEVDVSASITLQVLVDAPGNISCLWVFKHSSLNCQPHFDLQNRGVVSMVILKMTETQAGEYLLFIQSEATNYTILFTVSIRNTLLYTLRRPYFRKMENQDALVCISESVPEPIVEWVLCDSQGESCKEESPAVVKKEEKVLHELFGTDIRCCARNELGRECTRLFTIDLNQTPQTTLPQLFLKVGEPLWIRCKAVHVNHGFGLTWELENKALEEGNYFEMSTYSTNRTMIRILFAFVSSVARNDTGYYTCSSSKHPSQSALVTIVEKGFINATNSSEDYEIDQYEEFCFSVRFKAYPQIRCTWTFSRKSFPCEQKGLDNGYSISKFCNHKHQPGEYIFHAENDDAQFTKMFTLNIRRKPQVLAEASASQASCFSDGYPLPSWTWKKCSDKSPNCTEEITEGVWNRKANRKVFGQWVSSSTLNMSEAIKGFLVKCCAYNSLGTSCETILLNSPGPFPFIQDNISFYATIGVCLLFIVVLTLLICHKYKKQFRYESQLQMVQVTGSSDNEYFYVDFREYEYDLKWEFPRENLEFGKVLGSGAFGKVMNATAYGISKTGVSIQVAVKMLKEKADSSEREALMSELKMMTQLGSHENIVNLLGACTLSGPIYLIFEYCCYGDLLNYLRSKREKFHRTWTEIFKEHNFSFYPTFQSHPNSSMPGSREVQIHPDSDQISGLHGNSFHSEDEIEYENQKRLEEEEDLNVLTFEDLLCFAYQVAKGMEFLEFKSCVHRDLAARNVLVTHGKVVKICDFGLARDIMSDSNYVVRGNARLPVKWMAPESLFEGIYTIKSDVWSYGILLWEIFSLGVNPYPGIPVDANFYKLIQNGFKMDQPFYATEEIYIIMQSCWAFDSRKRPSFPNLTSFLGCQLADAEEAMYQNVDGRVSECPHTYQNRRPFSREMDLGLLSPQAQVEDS

[4] = target: Macrophage colony-stimulating factor 1 receptor (Homo sapiens) (UniProt P07333); details: Compound concentration 1.0 uM
Sequence of Macrophage colony-stimulating factor 1 receptor (Homo sapiens) (P07333 whole entry): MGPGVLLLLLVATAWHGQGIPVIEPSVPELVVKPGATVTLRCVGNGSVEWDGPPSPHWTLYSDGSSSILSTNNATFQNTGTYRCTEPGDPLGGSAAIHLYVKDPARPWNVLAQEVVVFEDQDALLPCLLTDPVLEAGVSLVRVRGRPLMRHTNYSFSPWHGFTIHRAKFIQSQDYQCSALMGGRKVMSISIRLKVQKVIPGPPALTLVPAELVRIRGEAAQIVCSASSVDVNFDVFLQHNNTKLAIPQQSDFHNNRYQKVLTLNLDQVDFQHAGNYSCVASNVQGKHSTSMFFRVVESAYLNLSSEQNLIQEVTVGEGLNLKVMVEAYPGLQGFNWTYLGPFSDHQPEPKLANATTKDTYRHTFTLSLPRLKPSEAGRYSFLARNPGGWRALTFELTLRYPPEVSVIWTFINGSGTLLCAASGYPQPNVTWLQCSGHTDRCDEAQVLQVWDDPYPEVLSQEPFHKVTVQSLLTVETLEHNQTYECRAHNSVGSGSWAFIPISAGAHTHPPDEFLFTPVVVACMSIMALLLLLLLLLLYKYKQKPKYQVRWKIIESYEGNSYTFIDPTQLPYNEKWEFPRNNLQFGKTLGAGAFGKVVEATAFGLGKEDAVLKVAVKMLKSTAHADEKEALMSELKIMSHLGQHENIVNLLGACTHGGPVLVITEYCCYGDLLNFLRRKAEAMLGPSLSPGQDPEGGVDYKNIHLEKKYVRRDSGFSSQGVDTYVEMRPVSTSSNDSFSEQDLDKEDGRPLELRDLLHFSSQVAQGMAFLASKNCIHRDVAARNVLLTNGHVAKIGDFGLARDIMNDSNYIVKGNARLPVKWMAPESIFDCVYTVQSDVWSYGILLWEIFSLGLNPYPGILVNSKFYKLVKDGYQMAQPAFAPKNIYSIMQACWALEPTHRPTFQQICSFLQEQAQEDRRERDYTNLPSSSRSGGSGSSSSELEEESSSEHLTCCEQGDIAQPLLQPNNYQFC

[5] = target: MAP/microtubule affinity-regulating kinase 3 (Homo sapiens) (UniProt P27448); details: Compound concentration 1.0 uM
Sequence of MAP/microtubule affinity-regulating kinase 3 (Homo sapiens) (P27448 whole entry, looked up): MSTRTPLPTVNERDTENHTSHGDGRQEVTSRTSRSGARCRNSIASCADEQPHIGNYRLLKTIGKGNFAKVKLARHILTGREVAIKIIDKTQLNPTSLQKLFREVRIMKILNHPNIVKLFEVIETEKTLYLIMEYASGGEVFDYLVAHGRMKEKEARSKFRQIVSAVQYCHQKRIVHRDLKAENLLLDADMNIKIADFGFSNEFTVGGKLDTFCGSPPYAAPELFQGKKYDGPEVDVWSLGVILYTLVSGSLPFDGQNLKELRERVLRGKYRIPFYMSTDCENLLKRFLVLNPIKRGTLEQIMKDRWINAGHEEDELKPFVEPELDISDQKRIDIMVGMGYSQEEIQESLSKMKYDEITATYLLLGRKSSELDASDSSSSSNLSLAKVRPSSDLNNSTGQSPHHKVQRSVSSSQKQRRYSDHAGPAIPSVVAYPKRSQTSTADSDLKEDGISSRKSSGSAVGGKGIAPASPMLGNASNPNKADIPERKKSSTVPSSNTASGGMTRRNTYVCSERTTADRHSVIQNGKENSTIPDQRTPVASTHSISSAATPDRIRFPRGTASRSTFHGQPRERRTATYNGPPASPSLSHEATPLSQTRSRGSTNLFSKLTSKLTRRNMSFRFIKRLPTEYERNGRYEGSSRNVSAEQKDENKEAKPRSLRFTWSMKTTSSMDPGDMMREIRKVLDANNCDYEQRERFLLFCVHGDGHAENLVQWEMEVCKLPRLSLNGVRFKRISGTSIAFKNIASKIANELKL

[6] = target: T2, MAP/microtubule affinity-regulating kinase 4 (Homo sapiens) (UniProt Q96L34); details: Compound concentration 1.0 uM
T2 sequence (whole entry): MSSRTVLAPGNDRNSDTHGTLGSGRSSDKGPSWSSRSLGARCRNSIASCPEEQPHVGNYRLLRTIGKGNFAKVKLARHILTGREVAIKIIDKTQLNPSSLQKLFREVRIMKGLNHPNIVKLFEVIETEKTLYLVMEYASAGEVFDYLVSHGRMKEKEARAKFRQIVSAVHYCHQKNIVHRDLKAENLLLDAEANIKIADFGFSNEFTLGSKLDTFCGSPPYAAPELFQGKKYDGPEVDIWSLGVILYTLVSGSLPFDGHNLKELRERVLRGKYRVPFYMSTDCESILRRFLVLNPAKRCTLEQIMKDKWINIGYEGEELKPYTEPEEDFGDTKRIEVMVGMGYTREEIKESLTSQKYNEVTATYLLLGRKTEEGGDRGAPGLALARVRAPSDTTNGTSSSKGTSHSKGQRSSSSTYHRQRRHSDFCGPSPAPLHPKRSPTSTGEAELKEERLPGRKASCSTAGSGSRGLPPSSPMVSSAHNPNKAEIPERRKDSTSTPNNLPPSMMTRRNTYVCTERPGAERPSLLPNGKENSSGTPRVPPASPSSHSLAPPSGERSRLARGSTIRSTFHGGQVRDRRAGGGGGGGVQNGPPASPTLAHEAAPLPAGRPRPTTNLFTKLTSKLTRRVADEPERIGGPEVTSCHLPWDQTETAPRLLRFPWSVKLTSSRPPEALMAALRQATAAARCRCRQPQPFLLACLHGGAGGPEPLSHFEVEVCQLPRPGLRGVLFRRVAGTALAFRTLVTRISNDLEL

[7] = target: T3, Serine/threonine-protein kinase 4 (Homo sapiens) (UniProt Q13043); details: Compound concentration 1.0 uM
T3 sequence (whole entry): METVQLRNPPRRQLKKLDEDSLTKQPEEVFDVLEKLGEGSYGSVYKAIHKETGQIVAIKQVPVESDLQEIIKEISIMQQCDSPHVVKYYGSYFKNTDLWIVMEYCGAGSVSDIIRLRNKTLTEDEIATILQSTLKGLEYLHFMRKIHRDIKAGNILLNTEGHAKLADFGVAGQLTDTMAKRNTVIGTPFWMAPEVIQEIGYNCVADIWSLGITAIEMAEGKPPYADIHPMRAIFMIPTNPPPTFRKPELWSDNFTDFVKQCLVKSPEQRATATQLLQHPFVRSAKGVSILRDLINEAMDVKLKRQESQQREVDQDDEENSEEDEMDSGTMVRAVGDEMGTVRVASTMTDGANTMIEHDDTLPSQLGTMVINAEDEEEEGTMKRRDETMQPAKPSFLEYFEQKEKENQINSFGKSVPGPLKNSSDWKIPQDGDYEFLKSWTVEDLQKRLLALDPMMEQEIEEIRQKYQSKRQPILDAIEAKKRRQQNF

[8] = target: Wee1-like protein kinase (Homo sapiens) (UniProt P30291); details: Compound concentration 1.0 uM
Sequence of Wee1-like protein kinase (Homo sapiens) (P30291 whole entry, looked up): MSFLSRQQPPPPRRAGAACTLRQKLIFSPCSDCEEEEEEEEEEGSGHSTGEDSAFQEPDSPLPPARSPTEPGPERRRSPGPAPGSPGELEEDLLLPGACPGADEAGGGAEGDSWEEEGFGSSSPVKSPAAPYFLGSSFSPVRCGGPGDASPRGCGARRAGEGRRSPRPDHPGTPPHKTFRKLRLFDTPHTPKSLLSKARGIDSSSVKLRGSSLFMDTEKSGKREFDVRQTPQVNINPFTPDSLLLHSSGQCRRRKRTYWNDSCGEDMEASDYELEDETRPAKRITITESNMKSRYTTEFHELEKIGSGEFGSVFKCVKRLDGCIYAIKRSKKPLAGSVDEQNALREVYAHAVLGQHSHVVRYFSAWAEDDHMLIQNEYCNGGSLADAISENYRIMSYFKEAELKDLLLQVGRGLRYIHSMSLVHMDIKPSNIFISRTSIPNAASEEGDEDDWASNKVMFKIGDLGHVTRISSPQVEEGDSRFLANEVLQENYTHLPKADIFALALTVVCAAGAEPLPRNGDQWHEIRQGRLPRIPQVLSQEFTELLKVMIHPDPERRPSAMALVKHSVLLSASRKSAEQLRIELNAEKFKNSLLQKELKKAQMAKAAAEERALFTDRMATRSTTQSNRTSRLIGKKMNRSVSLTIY

[9] = target: Mitogen-activated protein kinase kinase kinase 20 (Homo sapiens) (UniProt Q9NYL2); details: Compound concentration 1.0 uM
Sequence of Mitogen-activated protein kinase kinase kinase 20 (Homo sapiens) (Q9NYL2 2-800 limits assumed): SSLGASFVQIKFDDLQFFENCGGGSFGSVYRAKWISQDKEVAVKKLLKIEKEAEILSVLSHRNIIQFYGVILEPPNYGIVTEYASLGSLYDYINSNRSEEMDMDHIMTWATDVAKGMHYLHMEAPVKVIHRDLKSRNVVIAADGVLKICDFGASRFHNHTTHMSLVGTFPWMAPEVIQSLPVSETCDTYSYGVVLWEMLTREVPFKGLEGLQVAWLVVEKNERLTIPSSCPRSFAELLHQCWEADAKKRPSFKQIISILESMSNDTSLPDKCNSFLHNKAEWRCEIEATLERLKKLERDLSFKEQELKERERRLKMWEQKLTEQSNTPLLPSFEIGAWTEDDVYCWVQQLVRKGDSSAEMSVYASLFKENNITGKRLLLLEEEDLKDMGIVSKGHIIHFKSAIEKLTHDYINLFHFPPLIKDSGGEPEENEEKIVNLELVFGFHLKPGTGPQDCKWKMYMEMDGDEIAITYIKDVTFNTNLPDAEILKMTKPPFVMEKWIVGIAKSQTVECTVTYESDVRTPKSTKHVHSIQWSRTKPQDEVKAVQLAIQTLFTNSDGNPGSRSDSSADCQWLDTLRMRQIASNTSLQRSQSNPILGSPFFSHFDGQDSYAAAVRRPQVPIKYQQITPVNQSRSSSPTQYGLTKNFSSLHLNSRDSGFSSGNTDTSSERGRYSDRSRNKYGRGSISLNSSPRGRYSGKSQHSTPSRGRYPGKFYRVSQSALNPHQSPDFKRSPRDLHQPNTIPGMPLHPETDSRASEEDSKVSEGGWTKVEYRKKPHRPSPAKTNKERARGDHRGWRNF

Sequence of D(1A) dopamine receptor (Homo sapiens) (P21728 whole entry): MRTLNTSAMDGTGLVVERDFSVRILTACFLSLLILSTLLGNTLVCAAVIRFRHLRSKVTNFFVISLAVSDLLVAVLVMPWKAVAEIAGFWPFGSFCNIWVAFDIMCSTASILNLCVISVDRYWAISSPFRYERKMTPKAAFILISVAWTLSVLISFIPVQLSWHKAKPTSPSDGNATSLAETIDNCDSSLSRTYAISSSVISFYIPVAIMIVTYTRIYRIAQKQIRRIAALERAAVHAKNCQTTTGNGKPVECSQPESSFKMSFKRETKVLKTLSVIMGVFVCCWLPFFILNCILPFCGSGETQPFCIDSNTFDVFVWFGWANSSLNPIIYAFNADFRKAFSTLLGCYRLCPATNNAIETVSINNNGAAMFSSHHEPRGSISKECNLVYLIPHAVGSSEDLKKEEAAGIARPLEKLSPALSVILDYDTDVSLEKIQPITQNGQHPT

Cc1nc(C2CCN(C(=O)c3ccc(OC(F)(F)F)cc3N)CC2)c2ncc(N3CCN(C)CC3)cc2n1 [BAY-693]
inactive: inhibition [1] 2.66%

CN1CCN(c2cnc3c(C4CCN(C(=O)c5ccc(OC(F)(F)F)cc5N)CC4)ncnc3c2)CC1 [BAY-885]
inactive: % residual kinase activity [2] 101% | % residual kinase activity [3] 100% | % residual kinase activity [4] 118% | % residual kinase activity [5] 100% | % residual kinase activity [6] 100% | % residual kinase activity [7] 117% | % residual kinase activity [8] 108% | % residual kinase activity [9] 100%
